Data from patent US20160287571A1, “PHARMACEUTICAL COMPOSITIONS COMPRISING ANTIBACTERIAL AGENTS” (priority 2013, published 2016).
Where two headings read alike, the source gives them in different places.

Key:
Type in all cases: cell-based, Acinetobacter baumannii
[1] = test system: A. baumannii G 156 (OXA 51, OXA 23); assay: MIC in Muller Hinton Agar (CLSI agar dilution)
Description: (§1) The antibacterial activity of combinations according to the invention against resistant bacterial strains was investigated. Minimum Inhibitory Concentration (MIC) for the combinations according to invention was determined in Muller Hinton Agar (MHA) (BD, USA) according to Clinical and Laboratory Standards Institute (CLSI) recommendations (Clinical and Laboratory Standards Institute (CLSI), Performance Standards for Antimicrobial Susceptibility Testing, 20th Informational Supplement, M 100-S20, Volume 30, No. 1, 2010). Typically, the test strains were adjusted to deliver about 10^4 CFU per spot with a multipoint inoculator (Applied Quality Services, UK). The plates were pored with MHA containing doubling concentration range of the test combinations according to invention. The plates were inoculated and were incubated at 35° C. for 18 hours.

[2] = test system: A. baumannii NCTC 13305 (OXA 51, OXA 58); assay: MIC in Muller Hinton Agar (CLSI agar dilution)
Description: as §1

[3] = test system: A. baumannii NCTC 13303 (OXA 51, OXA 26); assay: MIC in Muller Hinton Agar (CLSI agar dilution)
Description: as §1

[4] = test system: A. baumannii NCTC 13302 (OXA 51, OXA 25); assay: MIC in Muller Hinton Agar (CLSI agar dilution)
Description: as §1

[5] = test system: A. baumannii NCTC 13301 (OXA 51, OXA 23); assay: MIC in Muller Hinton Agar (CLSI agar dilution)
Description: as §1

[6] = test system: A. baumannii J 144 (OXA 51, OXA 23); assay: MIC in Muller Hinton Agar (CLSI agar dilution)
Description: as §1

[7] = test system: A. baumannii M 126 (OXA 51, OXA 23); assay: MIC in Muller Hinton Agar (CLSI agar dilution)
Description: as §1

[8] = test system: A. baumannii Q 1460648 (OXA 51, OXA 23); assay: MIC in Muller Hinton Agar (CLSI agar dilution)
Description: as §1

[9] = test system: A. baumannii NCTC 13304 (OXA 51, OXA 27); assay: MIC in Muller Hinton Agar (CLSI agar dilution)
Description: as §1

[10] = test system: A. baumannii NCTC 13302 (OXA 51, OXA 25); assay: Time kill study; settings: for Bacterial count: initial count 6.54 log CFU/ml; for Effect on bacterial counts throughout the duration of the study (in words): A. baumannii NCTC 13302, summary of Table 3
Description: (§2) The synergistic killing effect of the combinations according to invention was studied using time kill studies. In a typical time kill study, freshly grown cultures were diluted to the required cell density (initial starting inoculum) in Cation adjusted Muller Hinton broth medium (BD, USA). The antibacterial agents (either alone or in combination) at the required concentrations were added into the culture-containing medium. The samples were incubated under shaking condition (120 rpm) at 37° C. Enumeration of viable bacterial count was done every 2 hour by diluting in normal saline and plating on to the Tryptic Soya Agar plates (BD, USA). The plates were incubated for 24 hours to arrive at the viable bacterial count. The results are expressed in terms of Log CFU per […]. In general, the decrease of 1 Log CFU/ml, corresponds to 90% killing of bacteria. Similarly, 2 Log CFU/ml reductions indicates 99% killing of bacteria and 3 Log CFU/ml reductions is equal to 99.9% killing of bacteria.

[11] = test system: A. baumannii NCTC 13304 (OXA 51, OXA 27); assay: Time kill study; settings: for Bacterial count: initial count 6.06 log CFU/ml
Description: as §2

[12] = Acinetobacter baumannii, agent alone, A. baumannii G 156, read-out: MIC
[13] = Acinetobacter baumannii, NCTC13305, agent alone, A. baumannii NCTC 13305, read-out: MIC
[14] = Acinetobacter baumannii, NCTC13303, agent alone, A. baumannii NCTC 13303, read-out: MIC
[15] = Acinetobacter baumannii, NCTC13302, agent alone, A. baumannii NCTC 13302, read-out: MIC
[16] = Acinetobacter baumannii, NCTC13301, agent alone, A. baumannii NCTC 13301, read-out: MIC
[17] = Acinetobacter baumannii, agent alone, A. baumannii J 144, read-out: MIC
[18] = Acinetobacter baumannii, agent alone, A. baumannii M 126, read-out: MIC
[19] = Acinetobacter baumannii, agent alone, A. baumannii Q 1460648, read-out: MIC
[20] = Acinetobacter baumannii, NCTC13304, agent alone, A. baumannii NCTC 13304, read-out: MIC
[21] = 2 hours, agent alone at 4 mcg/ml
[22] = 4 hours, agent alone at 4 mcg/ml
[23] = 6 hours, agent alone at 4 mcg/ml

Q: With `O=C(NNC(=O)[C@@H]1CC[C@@H]2CN1C(=O)N2OS(=O)(=O)O)[C@@H]1CCCNC1` [Compound of Formula (I), (2S, 5R)-sulphuric acid mono-[2-(N′-[(R)-piperidin-3-carbonyl]-hydrazinocarbonyl)-7-oxo-1,6-diaza-bicyclo[3.2.1]oct-6-yl] ester] as the compound, how does the MIC [1, 12] read?
A: > 32 µg/mL

Q: What about the MIC [2, 13] of the same compound?
A: > 32 µg/mL

Q: What about the MIC [3, 14] of the same compound?
A: > 32 µg/mL

Q: And the MIC [4, 15]?
A: > 32 µg/mL

Q: And the MIC [5, 16]?
A: > 32 µg/mL

Q: What about the MIC [6, 17] of the same compound?
A: > 32 µg/mL

Q: What about the MIC [7, 18] of the same compound?
A: > 32 µg/mL

Q: What about the MIC [8, 19] of the same compound?
A: > 32 µg/mL

Q: And the MIC [9, 20]?
A: > 32 µg/mL

Q: And the Bacterial count [10, 21]?
A: 7.5 Log CFU/ml

Q: What about the Bacterial count [10, 22] of the same compound?
A: 7.8 Log CFU/ml

Q: And the Bacterial count [10, 23]?
A: 7.95 Log CFU/ml

Q: What about the Bacterial count ([10]; 8 hours, agent alone at 4 mcg/ml) of the same compound?
A: 8.4 Log CFU/ml

Q: And the “Effect on bacterial counts throughout the duration of the study (in words)” value [10]?
A: did not reduce the bacterial counts

Q: And the Bacterial count [11, 21]?
A: 7 Log CFU/ml

Q: What about the Bacterial count [11, 22] of the same compound?
A: 7.55 Log CFU/ml

Q: And the Bacterial count [11, 23]?
A: 8.1 Log CFU/ml

Q: What about the “Effect on bacterial counts throughout the duration of the study (in words)” value ([11]; A. baumannii NCTC 13304, summary of Table 4) of the same compound?
A: did not reduce the bacterial counts

Q: Which results are given for `C[C@@H](O)[C@H]1C(=O)N2C(C(=O)O)=C(SCCN=CN)C[C@H]12` [Imipenem, imipenem]?
A: MIC [1, 12]: 16 µg/mL; MIC [2, 13]: 8 µg/mL; MIC [3, 14]: > 32 µg/mL; MIC [4, 15]: > 32 µg/mL; MIC [5, 16]: 32 µg/mL; MIC [6, 17]: > 32 µg/mL; MIC [7, 18]: 16 µg/mL; MIC [8, 19]: 32 µg/mL; MIC [9, 20]: 32 µg/mL; Bacterial count ([10]; 2 hours, agent alone at 8 mcg/ml): 7.87 Log CFU/ml; Bacterial count ([10]; 4 hours, agent alone at 8 mcg/ml): 8.27 Log CFU/ml; Bacterial count ([10]; 6 hours, agent alone at 8 mcg/ml): 8.07 Log CFU/ml; Bacterial count ([10]; 8 hours, agent alone at 8 mcg/ml): 8.47 Log CFU/ml; Bacterial count ([11]; 2 hours, agent alone at 16 mcg/ml): 6.34 Log CFU/ml; Bacterial count ([11]; 4 hours, agent alone at 16 mcg/ml): 7.47 Log CFU/ml; Bacterial count ([11]; 6 hours, agent alone at 16 mcg/ml): 7.07 Log CFU/ml

Q: Which results are given for `CN(C)c1cc(NC(=O)CNC(C)(C)C)c(O)c2c1C[C@H]1C[C@H]3[C@H](N(C)C)C(O)=C(C(N)=O)C(=O)[C@@]3(O)C(O)=C1C2=O` [Tigecycline, tigecycline]?
A: MIC ([1]; Acinetobacter baumannii): 1 µg/mL; MIC ([2]; Acinetobacter baumannii, NCTC13305): 0.5 µg/mL; MIC ([3]; Acinetobacter baumannii, NCTC13303): 2 µg/mL; MIC ([4]; Acinetobacter baumannii, NCTC13302): 2 µg/mL; MIC ([5]; Acinetobacter baumannii, NCTC13301): 2 µg/mL; MIC ([6]; Acinetobacter baumannii): 2 µg/mL; MIC ([7]; Acinetobacter baumannii): 0.5 µg/mL; MIC ([8]; Acinetobacter baumannii): 1 µg/mL; MIC ([9]; Acinetobacter baumannii, NCTC13304): 0.5 µg/mL; Bacterial count ([10]; 2 hours, agent alone at 1 mcg/ml): 3.47 Log CFU/ml; Bacterial count ([10]; 4 hours, agent alone at 1 mcg/ml): 3 Log CFU/ml; Bacterial count ([10]; 6 hours, agent alone at 1 mcg/ml): 3 Log CFU/ml; Bacterial count ([10]; 8 hours, agent alone at 1 mcg/ml): 3.23 Log CFU/ml; Effect on bacterial counts throughout the duration of the study (in words) [10]: exhibited the reduction of the bacterial counts

Q: colistin was tested. Which MIC ([1]; agent alone, A. baumannii G 156) did it give?
A: 1 µg/mL

Q: What about the MIC ([2]; agent alone, A. baumannii NCTC 13305) of the same compound?
A: 1 µg/mL

Q: What about the MIC ([3]; agent alone, A. baumannii NCTC 13303) of the same compound?
A: 1 µg/mL

Q: And the MIC ([4]; agent alone, A. baumannii NCTC 13302)?
A: 2 µg/mL

Q: And the MIC ([5]; agent alone, A. baumannii NCTC 13301)?
A: 2 µg/mL

Q: What about the MIC ([6]; agent alone, A. baumannii J 144) of the same compound?
A: 1 µg/mL

Q: And the MIC ([7]; agent alone, A. baumannii M 126)?
A: 1 µg/mL

Q: And the MIC ([8]; agent alone, A. baumannii Q 1460648)?
A: 1 µg/mL

Q: What about the MIC ([9]; agent alone, A. baumannii NCTC 13304) of the same compound?
A: 1 µg/mL

Q: What does the source list for `C[C@@H](O)[C@H]1C(=O)N2C(C(=O)O)=C(S[C@@H]3CN[C@H](C(=O)N(C)C)C3)[C@H](C)[C@H]12` [Meropenem, meropenem]?
A: MIC [1, 12]: 32 µg/mL; MIC [2, 13]: 4 µg/mL; MIC [3, 14]: > 32 µg/mL; MIC [7, 18]: 32 µg/mL; MIC [8, 19]: 32 µg/mL; MIC [9, 20]: 32 µg/mL
